In data set [1] the target is Rat recombinant PDE10a (rPDE10a) (Rattus norvegicus (Rat), UniProt Q9QYJ6). Kind of data set: In vitro assay PDE10a (rat recombinant PDE10a, SPA). To be noted: 60 nM cAMP, 60 min at rt, read-out: rPDE10a2 IC50. In kind it is biochemical. The gist of the method:
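Rat PDE10a expressed in Sf9 cells (baculovirus) and Ni-sepharose purified. Incubated with compound for 60 min at rt in 50 mM Tris pH 7.8, 8.3 mM MgCl2, 1.7 mM EGTA with 60 nM cAMP plus 0.008 μCi ^3H-cAMP (final), 1% DMSO. Read-out by PDE SPA bead scintillation counting (cpm), no-enzyme blank.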

The target of data set [2] is Human recombinant PDE10A2 (Homo sapiens (Human), UniProt Q9Y233). Kind of data set: In vitro hPDE10a (human recombinant PDE10A2, scintillation proximity assay). In kind it is biochemical. To be noted: human recombinant PDE10A2, 60 nM cAMP, 60 min at room temperature; read-out: hPDE10a2 IC50. In general terms: In a scintillation proximity assay essentially only radioactivity close to the scintillant gives light.

Data set [3] in a line: PDE10a-perfused brain permeability study (plasma and brain concentrations). The note with it: male, Sprague-Dawley, rat; for Kp at 2 h: brain/plasma.
Protocol: Drug administration by oral gavage, subcutaneous injection or intravenous was carried out using male Sprague Dawley rats under IACUC protocol (SH-MET3010). Male Sprague Dawley rats (Charles River) ˜300-350 g were maintained on a 4% standard rodent diet (Test Diet 5001). They are allowed ad libitum access to water and food. Room temperature was maintained at 64° F. and humidity at 30-70%.
Three animals per compound were provided a dose of 2 mg/mL in 20% HpbCD/Tris pH 8 by tail i.v. or 30 mpk p.o. or s.c. in 20% HpbCD/Tris pH 8, with PDE10a antagonists. A first blood sample was collected at 30 min via retro-orbital sinus (anesthetic by 70% CO2/30% O2) into heparinzed plasma separator tubes. The blood was centrifuged and 100 uL plasma was placed into a 96 well plate and saved on dry ice.
After the 120 min, the final blood sample was collected via retro-orbital sinus under anesthesia by IP 0.5 cc injection of a 4/1 mixture of Ketaset: AnaSed [(prepared 10 mL Ketaset (100 mg/mL Ketamine)+2.5 mL AnaSed (20 mg/mL Xylazine)]. The rats were then perfused with 400 mL heparinized saline (10,000 units/L) through the left ventricle of the heart; the brains were then removed (not including the medulla), weighed and homogenized in PBS (4 mL/g tissue). The samples were stored at −80° C. and submitted for chemical analysis of blood and brain concentrations. Endpoints of sample analysis consists of the plasma concentrations at 30 and 120 min, plus brain concentrations at 120 min.

Where a name gives a salt, the structure may show the parent alone.

Rat recombinant PDE10a (rPDE10a), sequence (Q9QYJ6 whole entry): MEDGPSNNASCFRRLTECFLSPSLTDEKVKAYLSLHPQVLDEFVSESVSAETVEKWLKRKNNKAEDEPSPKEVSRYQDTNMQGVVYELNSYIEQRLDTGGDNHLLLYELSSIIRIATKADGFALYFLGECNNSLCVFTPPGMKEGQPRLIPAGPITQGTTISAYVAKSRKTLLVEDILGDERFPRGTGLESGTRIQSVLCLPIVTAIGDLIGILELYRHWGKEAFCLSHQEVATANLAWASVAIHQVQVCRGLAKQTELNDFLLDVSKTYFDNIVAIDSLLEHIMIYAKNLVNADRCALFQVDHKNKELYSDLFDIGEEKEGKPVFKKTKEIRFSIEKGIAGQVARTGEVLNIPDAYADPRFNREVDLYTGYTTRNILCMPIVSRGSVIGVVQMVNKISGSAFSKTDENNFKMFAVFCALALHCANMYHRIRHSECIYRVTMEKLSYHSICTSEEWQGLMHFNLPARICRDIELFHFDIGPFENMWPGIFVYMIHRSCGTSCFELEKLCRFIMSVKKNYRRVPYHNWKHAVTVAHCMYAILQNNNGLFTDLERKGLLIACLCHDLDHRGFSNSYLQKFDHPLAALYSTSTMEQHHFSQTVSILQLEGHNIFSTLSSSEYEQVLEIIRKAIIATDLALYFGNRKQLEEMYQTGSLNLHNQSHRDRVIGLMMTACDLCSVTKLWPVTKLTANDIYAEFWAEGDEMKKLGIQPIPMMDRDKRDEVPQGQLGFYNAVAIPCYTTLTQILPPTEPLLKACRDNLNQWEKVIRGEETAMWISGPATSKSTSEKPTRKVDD
Human recombinant PDE10A2, sequence (Q9Y233 267-1055): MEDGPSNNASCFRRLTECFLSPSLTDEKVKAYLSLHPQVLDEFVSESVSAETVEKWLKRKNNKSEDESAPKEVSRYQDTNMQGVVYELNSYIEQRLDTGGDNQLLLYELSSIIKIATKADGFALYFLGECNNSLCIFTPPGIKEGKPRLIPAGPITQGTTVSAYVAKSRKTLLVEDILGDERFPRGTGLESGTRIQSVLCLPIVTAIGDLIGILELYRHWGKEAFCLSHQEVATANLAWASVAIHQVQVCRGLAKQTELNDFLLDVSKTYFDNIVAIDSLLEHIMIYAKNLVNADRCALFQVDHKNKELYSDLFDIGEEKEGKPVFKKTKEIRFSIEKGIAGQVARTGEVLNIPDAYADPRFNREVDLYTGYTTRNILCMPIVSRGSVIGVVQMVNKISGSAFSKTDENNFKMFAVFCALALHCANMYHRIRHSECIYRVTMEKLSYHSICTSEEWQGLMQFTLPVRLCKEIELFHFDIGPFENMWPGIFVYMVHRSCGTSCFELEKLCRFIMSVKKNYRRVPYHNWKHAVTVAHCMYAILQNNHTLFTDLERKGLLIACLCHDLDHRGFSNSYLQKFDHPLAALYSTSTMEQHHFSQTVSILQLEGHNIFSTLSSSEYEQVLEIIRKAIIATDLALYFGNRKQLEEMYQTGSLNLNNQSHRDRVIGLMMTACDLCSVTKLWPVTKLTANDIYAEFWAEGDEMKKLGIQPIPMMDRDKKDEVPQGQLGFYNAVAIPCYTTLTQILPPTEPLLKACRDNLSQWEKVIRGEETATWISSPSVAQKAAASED

`c1ccc2nc(OCc3cn4c(-c5ccc(N6CCNCC6)nc5)cnc(N5CCOCC5)c4n3)ccc2c1` [Cpd 126, 4-(5-(6-(piperazin-1-yl)pyridin-3-yl)-2-((quinolin-2-yloxy)methyl)imidazo[1,2-a]pyrazin-8-yl)morpholine methane sulfonic acid salt]: the IC50 in data set [1] turned out to be 13 nM; in data set [2] it was 34 nM. In addition, the concentration at 2 h was 49.3 ng/g in data set [3] (brain) and 22.4 ng/mL in data set [3] (plasma). Further, the Kp at 2 h in data set [3] stood at 2.26.
With `Cc1ccc(-c2cnc(N3CCOCC3)c3nc(COc4ccc5ccccc5n4)cn23)cn1` [Cpd 128, 4-(5-(6-Methylpyridin-3-yl)-2-((quinolin-2-yloxy)methyl)imidazo[1,2-a]pyrazin-8-yl)morpholine methane sulfonic acid salt], the IC50 in data set [1] was determined as 31 nM; in data set [2], 30 nM. For the same molecule, the concentration at 2 h in data set [3] (brain) worked out at 1.85 ng/g; in data set [3] (plasma), 16.4 ng/mL. In addition, in data set [3], the Kp at 2 h was 0.58.
On to `c1cncc(-c2cnc(N3CCOCC3)c3nc(COc4ccc5ccccc5n4)cn23)c1` [Cpd 129, 4-(5-(Pyridin-3-yl)-2-((quinolin-2-yloxy)methyl)imidazo[1,2-a]pyrazin-8-yl)morpholine methane sulfonic acid salt], for which the IC50 in data set [1] came to 27 nM; in data set [2] it was 31 nM. In addition, the figures for the concentration at 2 h in data set [3] (brain) and in data set [3] (plasma) were 21.9 ng/g and 11 ng/mL, respectively. This molecule also yielded a Kp at 2 h in data set [3] of 2.07.
In the case of `c1ccc2nc(OCc3cn4c(-c5ccc(N6CCOCC6)nc5)cnc(N5CCOCC5)c4n3)ccc2c1` [Cpd 131, 4-(5-(8-Morpholino-2-((quinolin-2-yloxy)methyl)imidazo[1,2-a]pyrazin-5-yl)pyridin-2-yl)morpholine], the IC50 in data set [1] came to 11 nM; in data set [2], 51 nM. Also, the concentration at 2 h worked out at 57.3 ng/g in data set [3] (brain) and 28.1 ng/mL in data set [3] (plasma). The same molecule had a Kp at 2 h in data set [3] of 2.04.

Broadly, the IC50 is the concentration that inhibits the measured activity by half. For orientation: Kp means the ratio of the level in a tissue or fluid to that in plasma or blood.

The record behind these values is patent US9249163B2, “PDE10a inhibitors for the treatment of type II diabetes” (Janssen Pharmaceutica, NV, priority 2013, dated 2016).
